Assay results reported in patent US10683278B2 (JINAN UNIVERSITY, priority 2015, dated 2020).

Key:
[1] = biological target: T1, AXL kinase (Homo sapiens, UniProt P30530); assay: IC50 test on AXL kinase (Z′-LYTE FRET kinase activity detection); format: biochemical; conditions: for IC50: Z′-LYTE FRET peptide assay, 1 h reaction; for inhibitory activity on AXL kinase: competitive experiment with ATP, in words
T1 construct: purchased Invitrogen PV4803
T1 sequence (P30530 26-894): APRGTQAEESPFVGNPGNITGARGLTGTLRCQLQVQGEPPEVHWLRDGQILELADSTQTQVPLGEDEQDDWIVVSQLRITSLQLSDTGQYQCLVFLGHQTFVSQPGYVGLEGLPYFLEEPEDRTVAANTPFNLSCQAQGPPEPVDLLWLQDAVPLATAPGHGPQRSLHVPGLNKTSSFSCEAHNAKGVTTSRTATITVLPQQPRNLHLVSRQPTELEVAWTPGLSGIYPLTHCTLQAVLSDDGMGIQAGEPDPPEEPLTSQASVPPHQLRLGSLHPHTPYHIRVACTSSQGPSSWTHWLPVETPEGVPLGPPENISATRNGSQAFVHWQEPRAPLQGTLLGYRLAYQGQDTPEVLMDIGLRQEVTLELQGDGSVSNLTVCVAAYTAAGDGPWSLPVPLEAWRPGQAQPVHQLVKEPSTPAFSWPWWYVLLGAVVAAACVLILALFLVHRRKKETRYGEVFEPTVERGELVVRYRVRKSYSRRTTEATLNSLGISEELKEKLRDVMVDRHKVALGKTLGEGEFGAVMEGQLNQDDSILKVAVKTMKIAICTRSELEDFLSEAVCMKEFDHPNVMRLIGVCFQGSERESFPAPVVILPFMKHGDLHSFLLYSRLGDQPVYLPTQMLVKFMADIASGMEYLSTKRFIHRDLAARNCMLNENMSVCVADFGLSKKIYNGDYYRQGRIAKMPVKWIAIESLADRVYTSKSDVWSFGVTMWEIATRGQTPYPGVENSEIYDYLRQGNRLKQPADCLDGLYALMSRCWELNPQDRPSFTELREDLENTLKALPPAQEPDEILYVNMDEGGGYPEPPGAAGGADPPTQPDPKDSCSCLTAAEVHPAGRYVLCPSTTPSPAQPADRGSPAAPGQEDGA
Method in brief: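 AXL kinase with Z′-LYTE Tyr 2 FRET peptide, ATP and graded compound concentrations reacted 1 h, then site-specific protease cleaved non-phosphorylated peptide for 1 h. Emission at 445 and 520 nm with 400 nm excitation gave the IC50.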

[2] = test system: Molm-13 cells; assay: Inhibition of proliferation of Molm-13 cells (CCK-8); format: cell-based; conditions: Homo sapiens, 72 h, mean±standard deviation of two independent tests
Experimental: [Worded in the source for another cell line; this cell line is reported under the same test.] (§1) 12000 g of compounds were centrifuged for 5 min, DMSO was added to make a 10^−2M stock solution, vortexed uniformly and sonicated for 10 min for standby application, and stored at −40° C. The compounds were diluted from the stock solution with saline to 10 times the concentration to be tested (concentration of DMSO in the system being no more than 0.5%) during the test.
(§2) The inhibitory effect of the compounds on the proliferation of MV4-11 cells was detected using a CCK-8 cell counting kit (Dojindo). The specific steps are as follows: the MV4-11 cells in logarithmic growth phase were seeded into a 96-well culture plate at a suitable density in 90 μL/well, cultured overnight, compounds at different concentrations were then added and acted on cells for 72 hr, and the solvent control group (negative control) was set up. The effect of the compounds on cell proliferation was detected using a CCK-8 cell counting kit (Dojindo) after the compounds had acted on the cells for 72 h. 10 μL of CCK-8 reagent was added to each well, same was placed in an incubator at 37° C. for 2-4 hours, and the reading from the full-wavelength microwell plate ELIASA SpectraMax 190 was performed with a wavelength of 450 nm.
(§3) IC50 value was calculated using a software included with ELIASA by the four-parameter regression.
(§4) IC50 for the inhibition of the compounds on each stain of cells was derived from two independent repeated tests, and the results are shown as the mean±standard deviation.

[3] = test system: MV4-11 cells; assay: Inhibition of proliferation of MV4-11 cells (CCK-8); format: cell-based; conditions: Homo sapiens, 72 h, mean±standard deviation of two independent tests
Experimental: as §1, §2, §3, §4

Row | Structure (SMILES) | IC50 [1] | IC50 [2] | IC50 [3] | inhibitory activity on AXL kinase [1]
1 | COc1cc2ncnc(Oc3ccc(NC(=O)c4cn5c6c(c(N7CCC(O)CC7)c(F)cc6c4=O)CCC5C)cc3F)c2cc1OC (stereo not shown) [TL4830031, N-(4-((6,7-dimethoxyquinazolin-4-yl)oxy)-3-fluorophenyl)-9-fluoro-8-(4-hydroxypiperidin-1-yl)-5-methyl-1-oxo-1,5,6,7-tetrahydropyrido[3,2,1-ij]quinoline-2-carboxamide] | 0.028 µM | 239 ± 21.9 nM | > 500 nM | 
2 | CCc1ccc2c(c1)c(=O)c(C(=O)Nc1ccc(Oc3ncnc4cc(OCCCN5CCN(C)CC5)c(OC)cc34)c(F)c1)c(C)n2C [GDL5000138, 6-ethyl-N-(3-fluoro-4-(6-methoxy-7-(3-(4-methylpiperazin-1-yl)propoxy)quinazolin-4-yloxy)phenyl)-1,2-dimethyl-4-oxo-1,4-dihydroquinoline-3-carboxamide] | 0.003 µM | 3.9 ± 2.9 nM | < 2 nM | strong inhibitory activity
3 | CCc1ccc2c(c1)c(=O)c(C(=O)Nc1ccc(Oc3ncnc4cc(OC)c(OC)cc34)c(F)c1)c(C)n2C [TL4800191, N-(4-(6,7-dimethoxyquinazolin-4-yloxy)-3-fluorophenyl)-6-ethyl-1,2-dimethyl-4-oxo-1,4-dihydroquinoline-3-carboxamide] | 0.004 µM | 102 ± 10.9 nM | 194 ± 104 nM | 
4 | CCc1ccc2c(c1)c(=O)c(C(=O)Nc1ccc(Oc3ncnc4[nH]cc(-c5ccccc5)c34)c(F)c1)c(C)n2C [TL4800075, 6-ethyl-N-(3-fluoro-4-((5-phenyl-7H-pyrrolo[2,3-d]pyrimidin-4-yl)oxy)phenyl)-1,2-dimethyl-4-oxo-1,4-dihydroquinoline-3-carboxamide] | 0.006 µM |  |  | 
5 | CCc1ccc2c(c1)c(=O)c(C(=O)Nc1ccc(Oc3ncnc4cc(OCCCN5CCOCC5)c(OC)cc34)c(F)c1)c(C)n2C [GDL5000123, 6-ethyl-N-(3-fluoro-4-((6-methoxy-7-(3-morpholinopropoxy)quinazolin-4-yl)oxy)phenyl)-1,2-dimethyl-4-oxo-1,4-dihydroquinoline-3-carboxamide] | 0.008 µM | 3.5 ± 3.2 nM | 51.7 ± 17.6 nM | strong inhibitory activity
6 | CCc1ccc2c(c1)c(=O)c(C(=O)Nc1ccc(Oc3ncnc4cc(OCCN(C)C)c(OC)cc34)c(F)c1)c(C)n2C [GDL5000128, N-(4-(7-(2-(dimethylamino)ethoxy)-6-methoxyquinazolin-4-yloxy)-3-fluorophenyl)-6-ethyl-1,2-dimethyl-4-oxo-1,4-dihydroquinoline-3-carboxamide] | 0.006 µM | 50.2 ± 9.9 nM | 57.3 ± 10.4 nM | strong inhibitory activity
